In patent US20230234920A1, “Azirine Containing Compounds as Anti-Angiogenesis Agents and a Process for the Preparation Thereof” (COUNCIL OF SCIENTIFIC & INDUSTRIAL RESEARCH, priority 2020, published 2023):

Assays:
[1] = test system: chick CAM; assay: CAM (chick chorio-allantoic membrane) assay; type: in vivo; details: 500 nM and 250 nM
Procedure: (A) Chick CAM assays were used to observe the effect of Compound 1 on angiogenesis in vivo. 1 mm^2 window was made in 8 days old chicken eggs to expose the CAM, and a gelatin disc ([…]) treated with vehicle (0.1% DMSO), sunitinib and Compound 1 at a indicated concentrations were placed on the CAM surface. Post 4 days of incubation, the discs and associated CAM were photographed and excised out, for hemoglobin estimation by drapkin's reagent. (B) Blood vessel density was calculated and Hb. concentration was measured and representative graph was plotted for the control and treatment group and data are represented as mean±SEM with significant difference from control at *p<0.05, **p<0.01 and ***p<0.001.
The eggs were incubated horizontally for 3 days at 37° C. in a 60% humidified atmosphere, using a hybridization incubator (combi-SV 12) with one hour scheduled rotation. Post 3 days of incubation, 2-3 mL of albumin was aspirated from the acute pole of the egg to create false air sac directly over the CAM. Post fertilization (Day 8), a fine blade was used to make an approximate 0.5 cc square incision on the eggshell under sterile conditions and the eggshell window fragment was removed to access the CAM beneath. A piece of gelatin sponge embedded in Compound 1 (500 nM and 250 nM) and sunitinib (2 μM) individually were placed on the CAM of the chicken embryo and incubated for 12 days. Sterile parafilm tape was used to seal back the window and the eggs were further incubated without the rotation setting. After 12 days of incubation the CAM integration was assessed by visual inspection and photographed with a digital camera (Canon EOS); the CAM membrane along with gelatin sponge were harvested and its hemoglobin (Hb.) estimation was done by Drabkin's method according to the manufacturer's protocol (Sigma, St. Louis, Mo.). Absorbance was measured at 540 nm and hemoglobin concentration was calculated.

[2] = test system: phospho-VEGFR2; assay: Immunoblotting of treated HUVECs, phospho-VEGFR2; type: cell-based, human; details: 250 nM, 6 h
Procedure: (A) Serum-starved HUVECs were treated with control (0.1% DMSO), sunitinib and Compound 1 at a given concentrations and then incubated for 6 h. The expression level of phospho-VEGFR2 and GAPDH (housekeeping protein) was analyzed by immunoblotting. (B) Blots were quantified with Image-J software and the bar graphs represent the relative density of phospho-VEGFR2 normalized with GAPDH and the data are represented as mean±SEM with significant difference compared with control at *p<0.05. (D) Protein angiogenesis array showing up-regulation of anti-angiogenic protein and down-regulation of pro-angiogenic proteins on endothelial cell treated with Compound 1 at 260 nM.
Whole cell lysates of endothelial cells at 6 h of treatment with Compound 1 (250 nM) and sunitinib (50 nM) were prepared using the RIPA-lysis buffer. Proteins were fractionated and resolved on 8% SDS-PAGE gels and transferred onto PVDF membranes (Millipore). After incubation in blocking buffer (5% BSA in 1×TBST) for 1 h the membranes were incubated with primary antibodies specific for p-Akt and p-Src. GAPDH was used as housekeeping and loading control. The blots were then incubated with specific HRP-conjugated secondary antibodies and bands were visualized using ECL (Millipore) on Image Quant (LAS4010) chemiluminescence detection system. The band intensities were quantified using My Image Analysis software.

In the case of CCOC(=O)C1N=C1CCc1ccc(OC)cc1 (racemic) [Compound 1, Ethyl 3-(4-methoxyphenethyl)-2H-azirine-2-carboxylate], the blood vessels density [1] is reported as “suppressed blood vessels density”, the hemoglobin content [1] is reported as 50 to 60 µg/mL and the p-VEGFR2 expression [2] is reported as “marked reduction”.
